# Assay results reported in US20190352268A1, “CANNABINOID RECEPTOR MEDIATING COMPOUNDS” (The USA, as represented by the Secretary, Department of …, priority 2015, published 2019).
# Tested on: CCl4-induced liver fibrosis
# Assay: CCl4-induced liver fibrosis model in mice
# Format: in vivo, mouse
# Conditions: 10 mg/kg/day orally for 4 weeks
# Method: CCl4-induced liver fibrosis was generated by intraperitoneal injection of CCL4 (1 ml/kg, diluted 1:10 corn oil), twice weekly for 8 weeks. […] Data represent mean±SEM from 7-8 mice per group.*P<0.05 relative to control. ^#indicates significant treatment effect (P<0.05) relative to CCl4-treated vehicle group.
# Fibrosis results from excessive extracellular matrix deposition by myofibroblasts accompanying chronic inflammation and wound healing, and is a key pathogenic process in many organs, including kidneys, lung, and liver.
row,Compound,liver fibrosis / collagen deposition by Sirius Red and Masson's trichrome staining
1,CC(=N)N/C(=N\S(=O)(=O)c1ccc(Cl)cc1)N1C[C@H](c2ccccc2)C(c2ccc(Cl)cc2)=N1 [Compound 2E1],more effective than rimonabant

# Same assay, conditions: 10 mg/kg/day orally for 4 weeks, liver
row,Compound,CCl4-induced increase in immunoreactive iNOS
1,CC(=N)N/C(=N\S(=O)(=O)c1ccc(Cl)cc1)N1C[C@H](c2ccccc2)C(c2ccc(Cl)cc2)=N1 [Compound 2E1],dramatically attenuated

# Same assay, conditions: versus rimonabant
row,Compound,anti-fibrotic efficacy in liver fibrosis (overall)
1,CC(=N)N/C(=N\S(=O)(=O)c1ccc(Cl)cc1)N1C[C@H](c2ccccc2)C(c2ccc(Cl)cc2)=N1 [Compound 2E1],higher anti-fibrotic efficacy than rimonabant

# Tested on: not listed separately
# Assay: Tissue levels (brain and plasma) after administration to mice
# Conditions: 1 hour after administration of 10 mg/kg to mice
row,Compound,"plasma levels, oral versus i.p. administration"
1,CC(=N)N/C(=N\S(=O)(=O)c1ccc(Cl)cc1)N1C[C@H](c2ccccc2)C(c2ccc(Cl)cc2)=N1 [Compound 2E1],comparable after oral or i.p. administration

# Target: CB1 (Mus musculus, UniProt P47746)
# Sequence (P47746 whole entry): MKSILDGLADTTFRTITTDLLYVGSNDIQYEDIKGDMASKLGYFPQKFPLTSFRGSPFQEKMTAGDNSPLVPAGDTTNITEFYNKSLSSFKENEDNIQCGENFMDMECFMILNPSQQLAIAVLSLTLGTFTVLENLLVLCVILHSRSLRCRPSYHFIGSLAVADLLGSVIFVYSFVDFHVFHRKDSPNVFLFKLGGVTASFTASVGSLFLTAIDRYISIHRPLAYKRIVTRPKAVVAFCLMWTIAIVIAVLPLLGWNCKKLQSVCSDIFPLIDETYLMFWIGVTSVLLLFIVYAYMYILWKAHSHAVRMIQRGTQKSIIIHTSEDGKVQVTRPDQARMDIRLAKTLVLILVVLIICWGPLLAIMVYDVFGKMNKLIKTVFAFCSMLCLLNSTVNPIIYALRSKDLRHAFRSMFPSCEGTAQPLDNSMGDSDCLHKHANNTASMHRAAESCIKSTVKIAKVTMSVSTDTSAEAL
# Assay: CB1 radioligand displacement assay in mouse brain membranes
# Format: binding
# Set-up: radioligand displacement assay in mouse brain membranes; from tissue; host or cells: mouse brain membranes
# Conditions: not given
row,Compound,Ki [nM]
1,CC(C)(C)OC(=O)N1CCN(/C(N)=N/C(=N/S(=O)(=O)c2ccc(Cl)cc2)N2CC(c3ccccc3)C(c3ccc(Cl)cc3)=N2)CC1 (stereo not shown) [Compound 59],387

# Same assay, conditions: Table 1; read-out: Ki CB1
row,Compound,Ki [nM]
1,CC(C)(C)OC(=O)N/C(N)=N/C(=N/S(=O)(=O)c1ccc(Cl)cc1)N1CC(c2ccccc2)C(c2ccc(Cl)cc2)=N1 (stereo not shown) [Compound 41],6.5
2,N/C(=N\C(=N\S(=O)(=O)c1ccc(Cl)cc1)N1CC(c2ccccc2)C(c2ccc(Cl)cc2)=N1)N1CCOCC1 (stereo not shown) [Compound 52],193

# Same assay, conditions: Table 2; read-out: Ki CB1
row,Compound,Ki [nM]
1,CC(N)=NC(=NS(=O)(=O)c1ccccc1)N1CC(c2ccccc2)C(c2ccc(Cl)cc2)=N1 (stereo not shown) [Compound 30],114
2,CC(N)=NC(=NS(=O)(=O)c1ccc(C)cc1)N1CC(c2ccccc2)C(c2ccc(Cl)cc2)=N1 (stereo not shown) [Compound 31],87
3,COc1ccc(S(=O)(=O)N=C(N=C(C)N)N2CC(c3ccccc3)C(c3ccc(Cl)cc3)=N2)cc1 (stereo not shown) [Compound 32],182
4,CC(N)=NC(=NS(=O)(=O)c1ccc2ccccc2c1)N1CC(c2ccccc2)C(c2ccc(Cl)cc2)=N1 (stereo not shown) [Compound 33],8
5,C=CCN(CC=C)/C(N)=N/C(=N/S(=O)(=O)c1ccc(Cl)cc1)N1CC(c2ccccc2)C(c2ccc(Cl)cc2)=N1 (stereo not shown) [Compound 35],263
6,CCCCN(CC)/C(N)=N/C(=N/S(=O)(=O)c1ccc(Cl)cc1)N1CC(c2ccccc2)C(c2ccc(Cl)cc2)=N1 (stereo not shown) [Compound 36],535
7,CCCN(CCC)/C(N)=N/C(=N/S(=O)(=O)c1ccc(Cl)cc1)N1CC(c2ccccc2)C(c2ccc(Cl)cc2)=N1 (stereo not shown) [Compound 37],138
8,CCN(CC)/C(N)=N/C(=N/S(=O)(=O)c1ccc(Cl)cc1)N1CC(c2ccccc2)C(c2ccc(Cl)cc2)=N1 (stereo not shown) [Compound 38],49
9,COCCN(CCOC)/C(N)=N/C(=N/S(=O)(=O)c1ccc(Cl)cc1)N1CC(c2ccccc2)C(c2ccc(Cl)cc2)=N1 (stereo not shown) [Compound 39],425
10,COCCN/C(N)=N/C(=N/S(=O)(=O)c1ccc(Cl)cc1)N1CC(c2ccccc2)C(c2ccc(Cl)cc2)=N1 (stereo not shown) [Compound 40],848
11,CC(C)(C)OC(=O)N/C(N)=N/C(=N/S(=O)(=O)c1ccc(Cl)cc1)N1CC(c2ccccc2)C(c2ccc(Cl)cc2)=N1 (stereo not shown) [Compound 41],6.5
12,CON(C)/C(N)=N/C(=N/S(=O)(=O)c1ccc(Cl)cc1)N1CC(c2ccccc2)C(c2ccc(Cl)cc2)=N1 (stereo not shown) [Compound 42],23
13,COCCN(C)/C(N)=N/C(=N/S(=O)(=O)c1ccc(Cl)cc1)N1CC(c2ccccc2)C(c2ccc(Cl)cc2)=N1 (stereo not shown) [Compound 43],908
14,CC(C)(C)N/C(N)=N/C(=N/S(=O)(=O)c1ccc(Cl)cc1)N1CC(c2ccccc2)C(c2ccc(Cl)cc2)=N1 (stereo not shown) [Compound 46],49
15,CC(C)N/C(N)=N/C(=N/S(=O)(=O)c1ccc(Cl)cc1)N1CC(c2ccccc2)C(c2ccc(Cl)cc2)=N1 (stereo not shown) [Compound 47],516
16,CN(Cc1cccnc1)C(N)=NC(=NS(=O)(=O)c1ccc(Cl)cc1)N1CC(c2ccccc2)C(c2ccc(Cl)cc2)=N1 (stereo not shown) [Compound 48],147
17,CN(Cc1ccccc1)/C(N)=N/C(=N/S(=O)(=O)c1ccc(Cl)cc1)N1CC(c2ccccc2)C(c2ccc(Cl)cc2)=N1 (stereo not shown) [Compound 49],343
18,N/C(=N\C(=N\S(=O)(=O)c1ccc(Cl)cc1)N1CC(c2ccccc2)C(c2ccc(Cl)cc2)=N1)NCc1ccccc1 (stereo not shown) [Compound 50],505
19,N/C(=N\C(=N\S(=O)(=O)c1ccc(Cl)cc1)N1CC(c2ccccc2)C(c2ccc(Cl)cc2)=N1)NCCc1ccccc1 (stereo not shown) [Compound 51],931
20,N/C(=N\C(=N\S(=O)(=O)c1ccc(Cl)cc1)N1CC(c2ccccc2)C(c2ccc(Cl)cc2)=N1)N1CCOCC1 (stereo not shown) [Compound 52],193
21,N/C(=N\C(=N\S(=O)(=O)c1ccc(Cl)cc1)N1CC(c2ccccc2)C(c2ccc(Cl)cc2)=N1)N1CCCCC1 (stereo not shown) [Compound 53],276
22,CN1CCN(/C(N)=N/C(=N/S(=O)(=O)c2ccc(Cl)cc2)N2CC(c3ccccc3)C(c3ccc(Cl)cc3)=N2)CC1 (stereo not shown) [Compound 54],309
23,N/C(=N\C(=N\S(=O)(=O)c1ccc(Cl)cc1)N1CC(c2ccccc2)C(c2ccc(Cl)cc2)=N1)NC1CCCC1 (stereo not shown) [Compound 56],459
24,N/C(=N\C(=N\S(=O)(=O)c1ccc(Cl)cc1)N1CC(c2ccccc2)C(c2ccc(Cl)cc2)=N1)NC1CCCCC1 (stereo not shown) [Compound 57],419
25,N/C(=N\C(=N\S(=O)(=O)c1ccc(Cl)cc1)N1CC(c2ccccc2)C(c2ccc(Cl)cc2)=N1)NCCc1c[nH]c2ccccc12 (stereo not shown) [Compound 58],585
26,COC(CN/C(N)=N/C(=N/S(=O)(=O)c1ccc(Cl)cc1)N1CC(c2ccccc2)C(c2ccc(Cl)cc2)=N1)OC (stereo not shown) [Compound 60],443

row,Compound,Ki [nM]
1,CN(CCC#N)/C(N)=N/C(=N/S(=O)(=O)c1ccc(Cl)cc1)N1CC(c2ccccc2)C(c2ccc(Cl)cc2)=N1 (stereo not shown) [Compound 61],203
2,NC(=NC(=NS(=O)(=O)c1ccc(Cl)cc1)N1CC(c2ccccc2)C(c2ccc(Cl)cc2)=N1)NCC12CC3CC(CC(C3)C1)C2 (stereo not shown) [Compound 62],> 1000
3,N/C(=N\C(=N\S(=O)(=O)c1ccc(Cl)cc1)N1CC(c2ccccc2)C(c2ccc(Cl)cc2)=N1)n1cccn1 (stereo not shown) [Compound 63],11
4,NC(=NC(=NS(=O)(=O)c1ccc(Cl)cc1)N1CC(c2ccccc2)C(c2ccc(Cl)cc2)=N1)NC12CC3CC(CC(C3)C1)C2 (stereo not shown) [Compound 64],> 1000
5,CC(=O)N/C(N)=N/C(=N/S(=O)(=O)c1ccc(Cl)cc1)N1CC(c2ccccc2)C(c2ccc(Cl)cc2)=N1 (stereo not shown) [Compound 65],9
6,CC(C)(N/C(N)=N/C(=N/S(=O)(=O)c1ccc(Cl)cc1)N1CC(c2ccccc2)C(c2ccc(Cl)cc2)=N1)c1ccccc1 (stereo not shown) [Compound 66],112
7,CN(CC(C)(C)C)C(N)=NC(=NS(=O)(=O)c1ccc(Cl)cc1)N1CC(c2ccccc2)C(c2ccc(Cl)cc2)=N1 (stereo not shown) [Compound 67],2390
8,COC(CN(C)C(N)=NC(=NS(=O)(=O)c1ccc(Cl)cc1)N1CC(c2ccccc2)C(c2ccc(Cl)cc2)=N1)OC (stereo not shown) [Compound 68],443
9,Cc1cc(C)n(C(N)=NC(=NS(=O)(=O)c2ccc(Cl)cc2)N2CC(c3ccccc3)C(c3ccc(Cl)cc3)=N2)n1 (stereo not shown) [Compound 69],10
10,NC(=NC(=NS(=O)(=O)c1ccc(C(F)(F)F)cc1)N1CC(c2ccccc2)C(c2ccc(Cl)cc2)=N1)c1ccc(F)cc1 (stereo not shown) [Compound 79],9
11,NC(=NC(=NS(=O)(=O)c1ccc(C(F)(F)F)cc1)N1CC(c2ccccc2)C(c2ccc(Cl)cc2)=N1)c1ccc(F)cc1F (stereo not shown) [Compound 80],6.6
12,CC(C)(C)C(N)=NC(=NS(=O)(=O)c1ccc(C(F)(F)F)cc1)N1CC(c2ccccc2)C(c2ccc(Cl)cc2)=N1 (stereo not shown) [Compound 81],3.4
13,NC(=NC(=NS(=O)(=O)c1ccc(C(F)(F)F)cc1)N1CC(c2ccccc2)C(c2ccc(Cl)cc2)=N1)c1ccc(Cl)cc1 (stereo not shown) [Compound 82],16
14,NC(=NC(=NS(=O)(=O)c1ccc(C(F)(F)F)cc1)N1CC(c2ccccc2)C(c2ccc(Cl)cc2)=N1)n1cccn1 (stereo not shown) [Compound 84],28
15,Cc1cc(C)n(C(N)=NC(=NS(=O)(=O)c2ccc(C(F)(F)F)cc2)N2CC(c3ccccc3)C(c3ccc(Cl)cc3)=N2)n1 (stereo not shown) [Compound 85],1.5
16,NC(=NC(=NS(=O)(=O)c1ccc(I)cc1)N1CC(c2ccccc2)C(c2ccc(Cl)cc2)=N1)c1ccc(Cl)cc1 (stereo not shown) [Compound 86],11
17,NC(=NC(=NS(=O)(=O)c1ccc(I)cc1)N1CC(c2ccccc2)C(c2ccc(Cl)cc2)=N1)c1ccc(F)cc1 (stereo not shown) [Compound 87],12
18,NC(=NC(=NS(=O)(=O)c1ccc(I)cc1)N1CC(c2ccccc2)C(c2ccc(Cl)cc2)=N1)c1ccc(F)cc1F (stereo not shown) [Compound 88],4.8
19,CC(C)(C)C(N)=NC(=NS(=O)(=O)c1ccc(I)cc1)N1CC(c2ccccc2)C(c2ccc(Cl)cc2)=N1 (stereo not shown) [Compound 89],4.1
20,CC(=O)N/C(N)=N/C(=N/S(=O)(=O)c1ccc(OC(F)(F)F)cc1)N1CC(c2ccccc2)C(c2ccc(Cl)cc2)=N1 (stereo not shown) [Compound 90],1.8
21,CC(=O)N/C(N)=N/C(=N/S(=O)(=O)c1ccc(C(C)(C)C)cc1)N1CC(c2ccccc2)C(c2ccc(Cl)cc2)=N1 (stereo not shown) [Compound 91],1.3
22,CC(N)=NC(=NS(=O)(=O)c1ccc(OC(F)(F)F)cc1)N1CC(c2ccccc2)C(c2ccc(Cl)cc2)=N1 (stereo not shown) [Compound 97],138
23,CC(N)=NC(=NS(=O)(=O)c1ccc(C(C)(C)C)cc1)N1CC(c2ccccc2)C(c2ccc(Cl)cc2)=N1 (stereo not shown) [Compound 98],48
24,CC(N)=NC(=NS(=O)(=O)c1ccc(C#N)cc1)N1CC(c2ccccc2)C(c2ccc(Cl)cc2)=N1 (stereo not shown) [Compound 100],16
25,NC(=NC(=NS(=O)(=O)c1ccc(C(F)(F)F)cc1)N1CC(c2ccccc2)C(c2ccc(Cl)cc2)=N1)NC(=O)/C=C/c1ccccc1 (stereo not shown) [Compound 101],5.5
